Data reported in ChEMBL document CHEMBL5385906, “Discovery of a Potent, Selective, and Orally Bioavailable Tool Compound for Probing the Role of Lysophosphatidic Acid Type 2 Receptor Antagonists in Fibrotic Disorders” (J Med Chem, 2023).
pIC50: −log10 of the molar value.

What was measured:
[1] = target: Lysophosphatidic acid receptor 5 (Homo sapiens, UniProt Q9H1C0)
Description: Antagonist activity at human LPA5 receptor expressed in HeLa cells assessed as inhibition of LPA-induced calcium mobilization pretreated for 15 mins followed by LPA stimulation by FLIPR analysis

[2] = Protein binding in human plasma assessed as fraction unbound at 0.5 uM measured after 5 hrs by LC-MS/MS analysis
[3] = target: T1, Lysophosphatidic acid receptor 2 (Mus musculus, UniProt Q9JL06); test: Antagonist activity at mouse LPA2 receptor expressed in HeLa cells assessed as inhibition of LPA-induced calcium mobilization pretreated for 15 mins followed by LPA stimulation by FLIPR analysis; assay type: functional, cell-based; conditions: for IC50: read-out: pIC50 (converted)
T1 sequence (Q9JL06 whole entry): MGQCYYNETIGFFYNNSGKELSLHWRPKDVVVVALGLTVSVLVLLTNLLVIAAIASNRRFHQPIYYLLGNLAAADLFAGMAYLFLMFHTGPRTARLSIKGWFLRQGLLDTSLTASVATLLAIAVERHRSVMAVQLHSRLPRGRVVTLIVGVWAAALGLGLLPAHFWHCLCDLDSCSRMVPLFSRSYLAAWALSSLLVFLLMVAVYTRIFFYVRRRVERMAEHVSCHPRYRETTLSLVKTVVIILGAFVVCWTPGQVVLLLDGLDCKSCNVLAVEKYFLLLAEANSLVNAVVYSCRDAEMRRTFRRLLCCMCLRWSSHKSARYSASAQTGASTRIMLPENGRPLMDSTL

[4] = target: Lysophosphatidic acid receptor 4 (Homo sapiens, UniProt Q99677)
Sequence of Lysophosphatidic acid receptor 4 (Q99677 whole entry): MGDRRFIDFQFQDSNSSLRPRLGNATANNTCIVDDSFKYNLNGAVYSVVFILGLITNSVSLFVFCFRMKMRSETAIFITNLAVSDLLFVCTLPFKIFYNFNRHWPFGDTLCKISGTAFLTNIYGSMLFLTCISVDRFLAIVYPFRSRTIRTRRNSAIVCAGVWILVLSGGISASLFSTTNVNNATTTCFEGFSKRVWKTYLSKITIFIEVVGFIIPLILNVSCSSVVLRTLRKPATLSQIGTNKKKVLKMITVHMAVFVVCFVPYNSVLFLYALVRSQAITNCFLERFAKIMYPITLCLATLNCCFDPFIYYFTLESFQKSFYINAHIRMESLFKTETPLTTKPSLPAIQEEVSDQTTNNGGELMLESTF

[5] = target: Lysophosphatidic acid receptor 1 (Homo sapiens, UniProt Q92633)
Sequence of Lysophosphatidic acid receptor 1 (Q92633 whole entry): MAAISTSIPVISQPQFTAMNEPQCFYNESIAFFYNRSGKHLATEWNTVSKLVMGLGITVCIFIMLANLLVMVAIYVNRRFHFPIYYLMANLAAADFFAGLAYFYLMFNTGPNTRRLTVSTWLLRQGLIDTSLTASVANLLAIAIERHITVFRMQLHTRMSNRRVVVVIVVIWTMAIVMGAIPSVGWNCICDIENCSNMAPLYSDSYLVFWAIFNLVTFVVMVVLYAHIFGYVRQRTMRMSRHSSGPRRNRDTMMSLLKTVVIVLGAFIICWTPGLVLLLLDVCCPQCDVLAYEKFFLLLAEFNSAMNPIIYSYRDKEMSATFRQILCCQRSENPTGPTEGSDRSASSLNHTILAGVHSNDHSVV
Description: Antagonist activity at human LPA1 receptor expressed in CHO cells assessed as inhibition of LPA-induced calcium mobilization pretreated for 15 mins followed by LPA stimulation by FLIPR analysis

in vivo [6] = conditions: C57BL/6J, mouse, po, 5 mg/kg
Description: Oral bioavailability in C57BL/6J mouse at 5 mg/kg by UPLC-MS/MS analysis

[7] = Apparent permeability across apical to basolateral side in human Caco-2 cells at 10 uM measured after 60 mins by LC-MS/MS analysis
[8] = target: T2, Lysophosphatidic acid receptor 3 (Homo sapiens, UniProt Q9UBY5)
T2 sequence (Q9UBY5 whole entry): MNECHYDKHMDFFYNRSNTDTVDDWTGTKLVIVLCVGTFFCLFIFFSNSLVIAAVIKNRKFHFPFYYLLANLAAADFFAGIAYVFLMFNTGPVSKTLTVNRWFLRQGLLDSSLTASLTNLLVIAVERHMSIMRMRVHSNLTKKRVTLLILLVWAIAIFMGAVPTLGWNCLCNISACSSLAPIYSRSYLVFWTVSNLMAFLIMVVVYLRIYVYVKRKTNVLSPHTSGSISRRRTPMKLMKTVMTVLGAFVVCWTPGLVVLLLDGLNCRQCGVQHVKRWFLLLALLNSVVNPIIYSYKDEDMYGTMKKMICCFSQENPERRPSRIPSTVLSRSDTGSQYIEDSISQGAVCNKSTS
Description: Antagonist activity at human LPA3 receptor expressed in HeLa cells assessed as inhibition of LPA-induced calcium mobilization pretreated for 15 mins followed by LPA stimulation by FLIPR analysis

[9] = Apparent permeability across basolateral to apical side in human Caco-2 cells at 10 uM measured after 60 mins by LC-MS/MS analysis
[10] = Protein binding in mouse lungs assessed as fraction unbound at 5 uM measured after 5 hrs by LC-MS/MS analysis
in vitro [11] = conditions: human, liver microsomes, CLH
Description: Intrinsic clearance in human liver microsomes at 0.5 uM in presence of NADPH regenerating system measured for 45 mins per mg protein by LC-MS/MS analysis

[12] = Half life in C57BL/6J mouse at 5 mg/kg, po or 4 mg/kg, iv by UPLC-MS/MS analysis; conditions: in vivo
[13] = Efflux ratio of apparent permeability across apical to basolateral to basolateral to apical side in human Caco-2 cells at 10 uM measured after 60 mins by LC-MS/MS analysis
[14] = Protein binding in mouse plasma assessed as fraction unbound at 0.5 uM measured after 5 hrs by LC-MS/MS analysis
[15] = target: Lysophosphatidic acid receptor 2 (Homo sapiens, UniProt Q9HBW0)
Sequence of Lysophosphatidic acid receptor 2 (Homo sapiens, UniProt Q9HBW0) (Q9HBW0 whole entry): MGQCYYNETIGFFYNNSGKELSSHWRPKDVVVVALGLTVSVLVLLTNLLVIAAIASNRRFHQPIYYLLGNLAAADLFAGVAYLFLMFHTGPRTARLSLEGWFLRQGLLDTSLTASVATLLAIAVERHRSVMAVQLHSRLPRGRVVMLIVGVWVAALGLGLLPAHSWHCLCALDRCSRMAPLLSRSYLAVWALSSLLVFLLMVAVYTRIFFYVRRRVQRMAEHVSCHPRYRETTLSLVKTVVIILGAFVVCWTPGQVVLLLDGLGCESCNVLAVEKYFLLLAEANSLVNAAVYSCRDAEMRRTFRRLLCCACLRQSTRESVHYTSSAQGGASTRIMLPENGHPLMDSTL
Description: Antagonist activity at human LPA2 receptor expressed in CHO cells assessed as inhibition of LPA-induced calcium mobilization pretreated for 15 mins followed by LPA stimulation by FLIPR analysis

[16] = target: T1, Lysophosphatidic acid receptor 2
Description: Antagonist activity at LPA2 receptor expressed in C57BL/6 mouse primary alveolar epithelial cells assessed as inhibition of LPA-induced calcium mobilization pretreated for 15 mins followed by LPA stimulation by FLIPR analysis

in vitro [17] = conditions: C57BL/6J, mouse, liver microsomes
Description: Intrinsic clearance in C57BL/6J mouse liver microsomes at 0.5 uM in presence of NADPH regenerating system measured for 45 mins per mg protein by LC-MS/MS analysis

in vivo [18] = conditions: C57BL/6J, mouse, plasma, po, 30 mg/kg
in vivo [19] = conditions: C57BL/6J, mouse, plasma, po, 30 mg/kg; remark: listed apart in the source
in vivo [20] = conditions: C57BL/6J, mouse, lung, po, 30 mg/kg
in vivo [21] = conditions: C57BL/6J, mouse, lung, po, 30 mg/kg; remark: listed apart in the source
[22] = Oral absorption in C57BL/6J mouse at 30 mg/kg by LC-MS/MS analysis; conditions: in vivo
in vivo [23] = conditions: C57BL/6J, mouse, po, 30 mg/kg
[24] = Half life in C57BL/6J mouse at 30 mg/kg, po and 2 mg/kg, iv by LC-MS/MS analysis; conditions: in vivo
in vivo [25] = conditions: C57BL/6J, mouse, po, 26.5 mg/kg
Description: Oral bioavailability in C57BL/6J mouse at 26.5 mg/kg by LC-MS/MS analysis

in vivo [26] = conditions: C57BL/6J, mouse, plasma, po, 26.5 mg/kg
Description: Total AUC last in C57BL/6J mouse plasma at 26.5 mg/kg, po and 2 mg/kg, iv by LC-MS/MS analysis

in vivo [27] = conditions: C57BL/6J, mouse, po, 26.5 mg/kg; remark: listed apart in the source
Description: Oral absorption in C57BL/6J mouse at 26.5 mg/kg by LC-MS/MS analysis

in vivo [28] = conditions: C57BL/6J, mouse, lung, po, 26.5 mg/kg
Description: Total AUC last in C57BL/6J mouse lungs at 26.5 mg/kg, po and 2 mg/kg, iv by LC-MS/MS analysis

in vivo [29] = conditions: C57BL/6J, mouse, po, 26.5 mg/kg; remark: listed apart in the source
Description: Half life in C57BL/6J mouse at 26.5 mg/kg, po and 2 mg/kg, iv by LC-MS/MS analysis

in vivo [30] = conditions: C57BL/6J, mouse, plasma, po, 26.5 mg/kg; remark: listed apart in the source
Description: Total Cmax in C57BL/6J mouse plasma at 26.5 mg/kg, po and 2 mg/kg, iv by LC-MS/MS analysis

in vivo [31] = conditions: C57BL/6J, mouse, lung, po, 26.5 mg/kg; remark: listed apart in the source
Description: Total Cmax in C57BL/6J mouse lungs at 26.5 mg/kg, po and 2 mg/kg, iv by LC-MS/MS analysis

[32] = Clearance in C57BL/6J mouse at 1.4 mg/kg, iv by UPLC-MS/MS analysis; conditions: in vivo
in vivo [33] = conditions: C57BL/6J, mouse, po, 24.3 mg/kg
Description: Half life in C57BL/6J mouse at 24.3 mg/kg, po and 1.4 mg/kg, iv by UPLC-MS/MS analysis

in vivo [34] = conditions: C57BL/6J, mouse, plasma, po, 24.3 mg/kg
Description: Total AUClast in C57BL/6J mouse plasma at 24.3 mg/kg, po and 1.4 mg/kg, iv by UPLC-MS/MS analysis

in vivo [35] = conditions: C57BL/6J, mouse, lungs, po, 24.3 mg/kg
Description: Total Cmax in C57BL/6J mouse lungs at 24.3 mg/kg, po and 1.4 mg/kg, iv by UPLC-MS/MS analysis

in vivo [36] = conditions: C57BL/6J, mouse, plasma, po, 24.3 mg/kg; remark: listed apart in the source
Description: Total Cmax in C57BL/6J mouse plasma at 24.3 mg/kg, po and 1.4 mg/kg, iv by UPLC-MS/MS analysis

in vivo [37] = conditions: C57BL/6J, mouse, po, 24.3 mg/kg; remark: listed apart in the source
Description: Oral absorption in C57BL/6J mouse at 24.3 mg/kg by UPLC-MS/MS analysis

in vivo [38] = conditions: C57BL/6J, mouse, po, 24.3 mg/kg; remark: listed apart in the source
Description: Oral bioavailability in C57BL/6J mouse at 24.3 mg/kg by UPLC-MS/MS analysis

in vivo [39] = conditions: C57BL/6J, mouse, lung and plasma, po, 24.3 mg/kg
Description: Ratio of total AUC in lung to plasma in C57BL/6J mouse at 24.3 mg/kg, po and 1.4 mg/kg, iv by UPLC-MS/MS analysis

in vivo [40] = conditions: C57BL/6J, mouse, lungs, po, 24.3 mg/kg; remark: listed apart in the source
Description: Total AUClast in C57BL/6J mouse lungs at 24.3 mg/kg, po and 1.4 mg/kg, iv by UPLC-MS/MS analysis

in vivo [41] = conditions: C57BL/6J, mouse, po, 24.8 mg/kg
Description: Half life in C57BL/6J mouse at 24.8 mg/kg, po and 1.8 mg/kg, iv by LC-MS/MS analysis

in vivo [42] = conditions: C57BL/6J, mouse, po, 24.8 mg/kg; remark: listed apart in the source
Description: Oral availability in C57BL/6J mouse at 24.8 mg/kg by LC-MS/MS analysis

in vivo [43] = conditions: C57BL/6J, mouse, po, 24.8 mg/kg; remark: listed apart in the source
Description: Total AUC last in C57BL/6J mouse plasma at 24.8 mg/kg, po and 1.8 mg/kg, iv by LC-MS/MS analysis

in vivo [44] = conditions: C57BL/6J, mouse, po, 24.8 mg/kg; remark: listed apart in the source
Description: Oral absorption in C57BL/6J mouse at 24.8 mg/kg by LC-MS/MS analysis

in vivo [45] = conditions: C57BL/6J, mouse, po, 24.8 mg/kg; remark: listed apart in the source
Description: Total Cmax in C57BL/6J mouse lungs at 24.8 mg/kg, po and 1.8 mg/kg, iv by LC-MS/MS analysis

in vivo [46] = conditions: C57BL/6J, mouse, po, 24.8 mg/kg; remark: listed apart in the source
Description: Total Cmax in C57BL/6J mouse plasma at 24.8 mg/kg, po and 1.8 mg/kg, iv by LC-MS/MS analysis

in vivo [47] = conditions: C57BL/6J, mouse, po, 24.8 mg/kg; remark: listed apart in the source
Description: Total AUC last in C57BL/6J mouse lungs at 24.8 mg/kg, po and 1.8 mg/kg, iv by LC-MS/MS analysis

Sequence of Lysophosphatidic acid receptor 5 (Q9H1C0 whole entry): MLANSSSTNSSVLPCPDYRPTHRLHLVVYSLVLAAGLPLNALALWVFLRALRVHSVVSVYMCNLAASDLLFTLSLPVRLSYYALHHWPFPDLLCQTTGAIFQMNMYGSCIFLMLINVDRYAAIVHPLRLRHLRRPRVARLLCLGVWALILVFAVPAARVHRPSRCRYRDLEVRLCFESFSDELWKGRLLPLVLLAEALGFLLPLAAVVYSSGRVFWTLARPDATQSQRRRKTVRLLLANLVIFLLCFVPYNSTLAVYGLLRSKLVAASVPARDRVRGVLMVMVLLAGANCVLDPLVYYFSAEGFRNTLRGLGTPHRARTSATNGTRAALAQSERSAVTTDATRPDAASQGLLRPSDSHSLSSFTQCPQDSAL

Compound	fraction unbound at 5 h, 0.5 µM [2]	IC50 [3] [nM]	pIC50 [4]	pIC50 [5]	Papp A→B at 1 h, 10 µM [7] [×10⁻⁶ cm/s]	pIC50 [8]	Papp B→A at 1 h, 10 µM [9] [×10⁻⁶ cm/s]	fraction unbound at 5 h, 5 µM [10]	microsomal CLint at 0.75 h, 0.5 µM (in vitro [11]) [µL/min/mg]	efflux ratio at 1 h, 10 µM [13]	fraction unbound at 5 h, 0.5 µM [14]	pIC50 [15]	microsomal CLint at 0.75 h, 0.5 µM (in vitro [17]) [µL/min/mg]	AUC(0-t) (in vivo [18]) [ng·h/mL]	Cmax (in vivo [19]) [ng/mL]	Cmax (in vivo [20]) [ng/mL]	AUC(0-t) (in vivo [21]) [ng·h/mL]	Fa [22] [%]	bioavailability (in vivo [23]) [%]	half-life [24] [h]	other results
Cc1csc2c(N[C@@H](C)CN3CCN(S(=O)(=O)c4ccc(Cl)c(Cl)c4)CC3)ncnc12	0.004	295	5.20	5.01	0.89	4.41	0.91	0.001	758	1	0.0065	6.17	> 759								pIC50 [1]: < 4.30; bioavailability (in vivo [6]): 0.23%; half-life [12]: 1 h; pIC50 [16]: 6.49
COC(=O)Nc1nc(C)c(S(=O)(=O)N2CCN(C[C@H](C)Nc3ncnc4c(-c5cccc(CN6CCCC6)c5)cccc34)CC2)s1	< 0.01	4.57		< 4.30	0.09		8.95	0.0187	104	98.1	0.0059	9.55	133	12900	4230	2680	19500	9	7	2.45	
COC(=O)Nc1nc(C)c(S(=O)(=O)N2CCN(C[C@H](C)Nc3ncnc4c(-c5ccc(C)nc5)cccc34)CC2)s1	< 0.01	4.17		< 4.30				0.0175	34	5.7	0.0011	8.61	49								bioavailability (in vivo [25]): 87%; AUC(0-t) (in vivo [26]): 280000 ng·h/mL; Fa (in vivo [27]): 97%; AUC(0-t) (in vivo [28]): 50500 ng·h/mL; half-life (in vivo [29]): 1.67 h; Cmax (in vivo [30]): 71500 ng/mL; Cmax (in vivo [31]): 15400 ng/mL
COC(=O)Nc1nc(C)c(S(=O)(=O)N2CCN(C[C@H](C)Nc3ncnc4c(C)csc34)CC2)s1	< 0.01		4.62	< 4.30	8.12	< 4.30	13.5	0.0385	80	1.7	0.0023	6.32	156								clearance [32]: 0.82 mL/min/kg; half-life (in vivo [33]): 2.17 h; pIC50 ([3]; read-out: IC50): 5.15; AUC(0-t) (in vivo [34]): 435000 ng·h/mL; Cmax (in vivo [35]): 25300 ng/mL; Cmax (in vivo [36]): 91300 ng/mL; Fa (in vivo [37]): 91%; bioavailability (in vivo [38]): 85%; Kp (in vivo [39]): 0.27; AUC(0-t) (in vivo [40]): 119000 ng·h/mL
COC(=O)Nc1nc(C)c(S(=O)(=O)N2CCN(C[C@H](C)Nc3ncnc4c(-c5cccc(CN(C)C)c5)cccc34)CC2)s1	0.0003	4.79		< 4.30	0.18		10.6	0.0177	38	60	0.0124	9.48	108	34200	12100	7030	43200	17	16	2.6	
COC(=O)Nc1nc(C)c(S(=O)(=O)N2CCN(C[C@H](C)Nc3ncnc4c(-c5cn(C)nc5C(F)(F)F)cccc34)CC2)s1	< 0.01	2.04		< 4.30	2.23		6.41	0.0122	52	2.9	0.0015	9.46	125								half-life (in vivo [41]): 1.69 h; bioavailability (in vivo [42]): 89%; AUC(0-t) (in vivo [43]): 418000 ng·h/mL; Fa (in vivo [44]): 100%; Cmax (in vivo [45]): 19000 ng/mL; Cmax (in vivo [46]): 70100 ng/mL; AUC(0-t) (in vivo [47]): 78000 ng·h/mL
